The source made the active and inactive calls. The rule behind the calls is not given here.
How the values were obtained:
[1] = test system: Tick-borne encephalitis virus; test: Antiviral activity against TBEV infected in porcine PEK cells assessed as reduction in cytopathic effect by plaque reduction assay; type: functional, organism-based
[2] = test system: Yellow fever virus; test: Antiviral activity against YFV infected in African green monkey Vero cells assessed as reduction in cytopathic effect by plaque reduction assay; type: functional, organism-based
[3] = test system: West Nile virus; test: Antiviral activity against WNV infected in African green monkey Vero cells assessed as reduction in cytopathic effect by plaque reduction assay; type: functional, organism-based
[4] = Cytotoxicity against porcine PEK cells assessed as reduction in cell viability after 7 days by resazurin staining based analysis; type: toxicity, Sus scrofa; conditions: pig, time 7 day
[5] = Cytotoxicity against African green monkey Vero cells assessed as reduction in cell viability after 7 days by resazurin staining based analysis; type: toxicity; conditions: chlorocebus sabaeus, time 7 day
[6] = Cytotoxicity against porcine PEK cells assessed as reduction in cell viability after 24 hrs by resazurin staining based analysis; type: toxicity, Sus scrofa; conditions: pig
[7] = Cytotoxicity against African green monkey Vero cells assessed as reduction in cell viability after 24 hrs by resazurin staining based analysis; type: toxicity; conditions: chlorocebus sabaeus
[8] = test system: West Nile virus; test: Antiviral activity against WNV infected in African green monkey Vero cells assessed as viral growth inhibition pre-infected with virus for 2 hrs followed by compound addition and measured 24 hrs post infection by time of addition assay; type: functional, organism-based; conditions: time 22.0 hrs
[9] = test system: West Nile virus; test: Antiviral activity against WNV infected in African green monkey Vero cells assessed as viral growth inhibition pre-infected with virus for 5 hrs followed by compound addition and measured 24 hrs post infection; type: functional, organism-based; conditions: time 19.0 hrs
[10] = test system: West Nile virus; test: Antiviral activity against WNV infected in African green monkey Vero cells assessed as viral growth inhibition pre-treated with compound for 2 hrs followed by viral infection and measured 24 hrs post infection; type: functional, organism-based; conditions: time 26.0 hrs
[11] = test system: West Nile virus; test: Antiviral activity against WNV infected in African green monkey Vero cells assessed as viral growth inhibition measured after 24 hrs; type: functional, organism-based
[12] = test system: West Nile virus; test: Antiviral activity against WNV infected in African green monkey Vero cells assessed as viral growth inhibition pre-infected with virus for 2 hrs followed by compound addition and measured after compound washout at 5 hrs post infection; type: functional, organism-based; conditions: time 3.0 hrs
[13] = test system: Tick-borne encephalitis virus; test: Antiviral activity against TBEV infected in human A549 cells assessed as inhibition of virus induced cytopathic effect; type: functional, organism-based
[14] = Selectivity index, ratio of CC50 for human A549 cells to EC50 for TBEV infected in human A549 cells; type: toxicity, cell-based; conditions: read-out: Ratio CC50/EC50
[15] = test system: Tick-borne encephalitis virus; test: Antiviral activity against TBEV infected in porcine PS cells assessed as inhibition of virus induced cytopathic effect pre-infected with virus followed by compound addition and measured after 3 to 4 days by microscope based analysis; type: functional, organism-based
[16] = test system: West Nile virus; test: Antiviral activity against WNV infected in African green monkey Vero cells; type: functional, organism-based
[17] = test system: Tick-borne encephalitis virus; test: Antiviral activity against TBEV infected in porcine PEK cells pre-infected for 1 hr followed by cell addition for 1 hrs and measured after 6 days; type: functional, organism-based
[18] = test system: Enterovirus A71; test: Antiviral activity against human EV71 BrCr infected human RD cells assessed as reduction in cytopathic effect pretreated with cells followed by viral infection and measured after 3 to 4 days post infection; type: functional, organism-based; conditions: Enterovirus A
[19] = Cytotoxicity against human RD cells; type: toxicity, cell-based
[20] = test system: Tick-borne encephalitis virus; test: Antiviral activity against TBEV infected in porcine PS cells assessed as r inhibition of virus induced cytopathic effect pretreated with cells for 24 hrs followed by viral infection for 24 hrs and measured after 72 hrs post infection; type: functional, organism-based
[21] = test system: Tick-borne encephalitis virus; test: Antiviral activity against TBEV infected in porcine PS cells pretreated with cells followed by viral infection and measured after 3 days post infection by microscope based analysis; type: functional, organism-based
[22] = test system: West Nile virus; test: Antiviral activity against WNV NY99 infected in African green monkey Vero cells pretreated with cells for 16 hrs followed by viral infection for 1 hr and measured after 48 hrs by plaque assay; type: functional, organism-based
[23] = test system: Tick-borne encephalitis virus; test: Antiviral activity against TBEV infected in human A549 cells assessed as reduction in cytopathic effect pretreated with cells for 1 hr followed by viral infection and measured after 3 days; type: functional, organism-based

SMILES: OC[C@H]1O[C@@H](n2cnc3c(NCc4ccc(-c5ccc(C(F)(F)F)cc5)cc4)ncnc32)[C@H](O)[C@@H]1O
- EC50 [1]: 4.7 µM
- EC50 [2]: 27 µM
- EC50 [3]: 8.3 µM
- CC50 at 168 h [4]: 26 µM
- CC50 at 168 h [5]: 28.5 µM

SMILES: OC[C@H]1O[C@@H](n2cnc3c(NCc4ccc(-c5cccc(C(F)(F)F)c5)cc4)ncnc32)[C@H](O)[C@@H]1O
- EC50 [1]: 6 µM
- EC50 [2]: 31 µM
- EC50 [3]: 6.8 µM
- CC50 at 168 h [4]: 36.7 µM
- CC50 at 168 h [5]: > 50 µM
- CC50 at 24 h [6]: > 50 µM
- CC50 at 24 h [7]: > 50 µM
- Activity [8]: Active
- Activity [9]: Active
- Activity [10]: inactive
- Activity [11]: inactive
- Activity [12]: inactive

SMILES: CCC(CC)COC(=O)[C@H](C)N[P@](=O)(OC[C@H]1O[C@@](C#N)(c2ccc3c(N)ncnn23)[C@H](O)[C@@H]1O)Oc1ccccc1 [REMDESIVIR]
- EC50 ([13]; Tick-borne encephalitis virus, A549): 2.1 µM
- EC50 ([13]; a549): 3.5 µM
- selectivity ratio [14]: 4.8

SMILES: OC[C@H]1O[C@@H](n2cnc3c(NCc4ccc(C#CC5=CCCCC5)cc4)ncnc32)[C@H](O)[C@@H]1O
- EC50 [1]: 10 µM
- EC50 [2]: 24 µM
- EC50 [3]: 5 µM
- CC50 at 168 h [4]: 36.6 µM
- CC50 at 168 h [5]: > 50 µM
- Activity [8]: Active
- Activity [9]: Active
- Activity [10]: inactive
- Activity [11]: inactive
- Activity [12]: inactive

SMILES: C[C@@]1(O)[C@H](O)[C@@H](CO)O[C@H]1n1cnc2c(N)ncnc21
- EC50 [15]: 7.1 µM

SMILES: OC[C@H]1O[C@@H](n2cnc3c(NCc4ccc(C#Cc5ccccc5)cc4)ncnc32)[C@H](O)[C@@H]1O
- EC50 [1]: 36.6 µM
- EC50 [2]: 33 µM
- EC50 [3]: 9.7 µM
- CC50 at 168 h [4]: > 50 µM
- CC50 at 168 h [5]: > 50 µM

SMILES: Nc1onc(C(=O)OCC23CC4CC(CC(C4)C2)C3)c1CCc1ccccc1
- EC50 [2]: 2.2 µM
- CC50 at 168 h [4]: > 100 µM
- CC50 at 168 h [5]: > 100 µM
- EC50 [16]: 1.8 µM
- EC50 [17]: 1.8 µM

SMILES: OC[C@H]1O[C@@H](n2cnc3c(NCc4ccc(C#CC5CC5)cc4)ncnc32)[C@H](O)[C@@H]1O
- EC50 [1]: > 50 µM
- EC50 [2]: > 50 µM
- EC50 [3]: 32 µM
- CC50 at 168 h [4]: > 50 µM
- CC50 at 168 h [5]: > 50 µM

SMILES: OC[C@H]1O[C@@H](n2cnc3c(NCc4c(F)cccc4F)ncnc32)[C@H](O)[C@@H]1O
- EC50 [18]: 0.21 µM
- CC50 [19]: > 245 µM

SMILES: OC[C@H]1O[C@@H](n2cnc3c(NCc4ccc(C#CC5CCCC5)cc4)ncnc32)[C@H](O)[C@@H]1O
- EC50 [1]: 8 µM
- EC50 [2]: 17.8 µM
- EC50 [3]: 18 µM
- CC50 at 168 h [4]: 37 µM
- CC50 at 168 h [5]: 38 µM

SMILES: C[C@@]1(O)[C@H](O)[C@@H](CO)O[C@H]1n1ccc(N)nc1=O
- EC50 [15]: 14.2 µM

SMILES: OC[C@H]1O[C@@H](n2cnc3c(NCc4ccccc4C(F)(F)F)ncnc32)[C@H](O)[C@@H]1O
- EC50 [1]: > 50 µM
- EC50 [2]: > 50 µM
- EC50 [3]: 7.7 µM
- CC50 at 168 h [4]: > 50 µM
- CC50 at 168 h [5]: > 50 µM

SMILES: OC[C@H]1O[C@@H](n2cnc3c(NCc4ccc(C(F)(F)F)cc4)ncnc32)[C@H](O)[C@@H]1O
- EC50 [1]: > 50 µM
- EC50 [2]: > 50 µM
- EC50 [3]: 7 µM
- CC50 at 168 h [4]: > 50 µM
- CC50 at 168 h [5]: > 50 µM

SMILES: Nc1ncnc2c1ncn2[C@@H]1O[C@H](CO)[C@@H](F)[C@H]1O
- EC50 [20]: 1.6 µM

SMILES: [N-]=[N+]=N[C@]1(CO)O[C@@H](n2ccc(N)nc2=O)[C@H](O)[C@@H]1O [4'-AZIDOCYTIDINE]
- EC50 [21]: 2.7 µM

SMILES: OC[C@H]1O[C@@H](n2cnc3c(NCc4ccc(C#Cc5cc(C(F)(F)F)cc(C(F)(F)F)c5)cc4)ncnc32)[C@H](O)[C@@H]1O
- EC50 [1]: 2.2 µM
- EC50 [2]: 5.6 µM
- EC50 [3]: 1.5 µM
- CC50 at 168 h [4]: 8.1 µM
- CC50 at 168 h [5]: 15.7 µM

SMILES: C[C@@]1(O)[C@H](O)[C@@H](CO)O[C@H]1n1ccc2c(N)ncnc21 [BETA-2'-C-METHYL-7-DEAZA-ADENOSINE]
- EC50 [15]: 5.1 µM

SMILES: OC[C@H]1O[C@@H](n2cnc3c(NCc4cc(C(F)(F)F)cc(C(F)(F)F)c4)ncnc32)[C@H](O)[C@@H]1O
- EC50 [1]: > 50 µM
- EC50 [2]: > 50 µM
- EC50 [3]: 16 µM
- CC50 at 168 h [4]: > 50 µM
- CC50 at 168 h [5]: > 50 µM

SMILES: OC[C@H]1O[C@@H](n2cnc3c(NCc4ccc(-c5ccccc5)cc4)ncnc32)[C@H](O)[C@@H]1O
- EC50 [1]: > 50 µM
- EC50 [2]: > 50 µM
- EC50 [3]: 13 µM
- CC50 at 168 h [4]: > 50 µM
- CC50 at 168 h [5]: > 50 µM
- CC50 at 24 h [6]: > 50 µM
- CC50 at 24 h [7]: > 50 µM

SMILES: NC(=O)c1nc(F)cnc1O [FAVIPIRAVIR]
- CC50 at 168 h [5]: > 1000 µM
- EC50 [22]: 94 µM

SMILES: OC[C@H]1O[C@@H](n2cnc3c(NCc4cccc(C(F)(F)F)c4)ncnc32)[C@H](O)[C@@H]1O
- EC50 [1]: > 50 µM
- EC50 [2]: > 50 µM
- EC50 [3]: 8 µM
- CC50 at 168 h [4]: > 50 µM
- CC50 at 168 h [5]: > 50 µM
- CC50 [19]: > 235 µM

SMILES: OC[C@H]1O[C@@H](n2cnc3c(NCc4ccc(-c5ccccc5C(F)(F)F)cc4)ncnc32)[C@H](O)[C@@H]1O
- EC50 [1]: 17 µM
- EC50 [2]: 46 µM
- EC50 [3]: 24 µM
- CC50 at 168 h [4]: > 50 µM
- CC50 at 168 h [5]: > 41 µM
- CC50 at 24 h [6]: > 50 µM
- CC50 at 24 h [7]: > 50 µM

SMILES: C#C[C@@]1(O)[C@H](O)[C@@H](CO)O[C@H]1n1ccc2c(N)ncnc21
- EC50 [23]: 0.2 µM

— ChEMBL document CHEMBL5523668, “Elongation of N6-benzyladenosine scaffold via Pd-catalyzed C-C bond formation leads to derivatives with antiflaviviral activity” (Bioorg Med Chem, 2024)
